Reference: patent publication US10017475B2, “Anti-vasculature and anti-tubulin combretastatin analogs for treatment of cancer” (XAVIER UNIVERSITY OF LOUISIANA, priority 2014, dated 2018)
“Also recorded” adds a separate entry of the source. Read-outs that look alike come from different tables or passages of the source.

Legend:
MDA-MB-231 cells [1] = experiment: Cytofluorimetric analysis of cell cycle distribution; type: cell-based, human; conditions: 1 μM, 24 h
Method: Cells treated with tested compounds for 24 h were washed once in PBS and resuspended in 1 mL of 70% ice cold ethanol and stored at −20° C. Fixed cells were washed twice in PBS and then treated with 1 mL of 0.1 mg/mL of RNase. A solution at 37° C. for 1 h. DNA was then stained with a PBS solution containing 0.1 mg/mL propidium iodide for 30 min at room temperature in the dark. Cell cycle analysis was determined with Accuri C6 (BD Biosciences, Mountain View, Calif.).
Similar results were obtained when another metastatic cancer cell line, MDA-MB-231 was used to test the effect of these compounds on cell cycle arrest.

HeLa cells [2] = experiment: Immunofluorescence of interphase microtubules; type: cell-based, human; conditions: 1 μM, 24 h
Method: (§1) MDA-MB-231 and HeLa cells were grown on a Laboratory-Tek chamber slide (VWR International, Radnor, Pa.) and treated with vehicle (DMSO) or 1 μM CA-4 or 4h for 24 hours to 4 days. At the completion of treatment, cells were fixed with 3.7% formaldehyde and permeabilized with 0.1% Triton X-100 in PBS for 4 min. The cells were first incubated for 1 h in a solution of PBS containing 1% BSA and calf serum to block nonspecific antibody binding. The cells were then incubated with the mouse anti-tubulin antibody (1:200) (Life Technologies, Grand Island, N.Y.), washed 3 times in PBS containing 1% BSA and incubated for 2 h at room temperature with secondary goat antimouse antibody Alexa 488 labeled (1:200) for tubulin staining. The chamber slides were examined and photographed using a Nikon ES800 fluorescence microscope with a digital camera.
(§2) To determine the microtubule disrupting effects of the pyridine-linked analogs, compound 4h was selected as a representative compound in a cell-based phenotypic screening. HeLa and MDA-MB-231 cells were used to examine the effect of 4h on the reorganization of microtubules during mitosis. Cells were treated with either 4h or CA-4 for 24 h, and microtubules were visualized by indirect immunofluorescence techniques. An antibody for β-tubulin was used to visualize interphase and mitotic microtubule structures.
(§3) At FIG. 37 the effects of CA-4 and 4h on interphase microtubules are shown. MDA-MB-231 and HeLa cells were treated with vehicle (A, D) or 1 μM compounds (B, C and E, F) as indicated for 24 hours. Cells were then fixed and microtubules visualized by indirect immunofluorescence techniques. Normal interphase microtubules are visible in the control cells of HeLa and MDA-MB-231. The loss of interphase microtubules induced by CA-4 and 4h is shown in respective treatments as labeled.

MDA-MB-231 cells [3] = experiment: Immunofluorescence of interphase microtubules; type: cell-based, human; conditions: 1 μM, 24 h
Method: as §1, §2, §3

MDA-MB-231 = experiment: Antiproliferative assay (resazurin, 72 h); type: cell-based, human; conditions: MDA-MB-231, 72 h incubation, read-out: Growth Inhibition IC50 MDA-MB-231
Method: (§4) Cells were seeded in 96-well plates (5×10^3 cells/well) containing 50 μL growth medium for 24 hours. After medium removal, 100 μL fresh medium containing individual analog compound at different concentrations was added to each well and incubated at 37° C. for 72 h. […] After 72 h of incubation, 20 μL of resazurin was added for 2 h before recording fluorescence at 560 nm (excitation) and 590 nm (emission) using a Victor microtiter plate fluorimeter (Perkin-Elmer, USA).

HeLa = experiment: Antiproliferative assay (resazurin, 72 h); type: cell-based, human; conditions: 72 h incubation, read-out: Growth Inhibition IC50 HeLa
Method: as §4

A549 = experiment: Antiproliferative assay (resazurin, 72 h); type: cell-based, human; conditions: A549, 72 h incubation, read-out: Growth Inhibition IC50 A549
Method: as §4

HeLa cells [4] = experiment: Cytofluorimetric analysis of cell cycle distribution; type: cell-based, human; conditions: 1 μM, 24 h
Method: Cells treated with tested compounds for 24 h were washed once in PBS and resuspended in 1 mL of 70% ice cold ethanol and stored at −20° C. Fixed cells were washed twice in PBS and then treated with 1 mL of 0.1 mg/mL of RNase. […] DNA was then stained with a PBS solution containing 0.1 mg/mL propidium iodide for 30 min at room temperature in the dark. Cell cycle analysis was determined with Accuri C6 (BD Biosciences, Mountain View, Calif.).

bovine brain tubulin = experiment: Tubulin polymerization assay; conditions: compared to vehicle (DMSO)
Method: It is based on the principal that light is scattered by microtubules to an extent that is proportional to the concentration of the microtubule polymer. Compounds that interact with tubulin will alter the polymerization of tubulin, and this can be detected using a spectrophotometer. The absorbance at 340 nm at 37° C. is monitored. The experimental procedure of the assay was performed as described in version 8.2 of the tubulin polymerization assay kit manual. Varying concentrations of compounds were preincubated with 10 μM bovine brain tubulin in glutamate buffer at 30° C. and then cooled to 0° C. After the addition of 0.4 mM GTP, the mixtures were transferred to 0° C. cuvettes in a recording spectrophotometer and warmed to 30° C. Tubulin assembly was followed turbidimetrically at 350 nm.
The reaction was initiated by the addition of tubulin to a final concentration of 3.0 mg/mL

[5] = tested on: chick embryo chorioallantoic membrane; experiment: Chick embryo chorioallantoic membrane (CAM) anti-angiogenesis assay; type: in vivo; conditions: for Angiogenesis score (scale 0-3) versus positive control BV (bFGF+VEGF): collagen onplant with bFGF+VEGF on CAM, four days
Method: Fertilized embryos were obtained from Charles River Laboratories and incubated at 37.5° C. for 3 days, removed from their shell using a Dremel tool and placed into a covered weighing boat for 10 further days of incubation. Solidified 30 µL onplants containing 2.1 mg/mL rat tail collagen (BD Biosciences, Bedford, Mass.) and 10 ng/mL bFGF and 30 ng/mL VEGF in the presence or absence of CA-4 and 4s were placed on the embryo chorioallantoic membrane (CAM) over two pieces of nylon mesh approximately 0.5 cm^2. Four collagen onplants were added per egg on at least 3 separate eggs. After four days of incubation, images were taken of each plug on surviving embryos using a mini-Vid camera (LW Scientific; Lawrenceville, Ga.) and quantified in a masked fashion on a scale from 0-3 with 0 representing no angiogenesis and 3 representing extreme angiogenesis. Data from one scorer (confirmed by a second scorer) are presented as the means±standard errors of the mean. Statistical significances were determined by one-way analysis of variance (ANOVA) followed by Dunnett's multiple comparison test (GraphPad Prism, La Jolla, Calif.).
In this test the vascular system of a fertilized chicken embryo is used as a model. […] The anti-angiogenesis activity of 4s and CA-4 were determined by the suppression of angiogenic action of BV (bFGF+VEGF) when the compound was added to a collagen containing BV and placed on the chorioallantoic membrane of […] chick embryos for four days. Angiogenesis was scored by two scorers in a blinded fashion.

In the case of `COc1ccc(-c2cccc(-c3ccc(OC)cc3OC)n2)cc1` [Compound 4h, 2-(2,4-Dimethoxyphenyl)-6-(4-methoxyphenyl)pyridine], the “Cell cycle distribution G0/G1” value (MDA-MB-231 cells [1]) is reported as 13.10%, the “Cell cycle distribution G2/M” value (MDA-MB-231 cells [1]) is reported as 70.5% and the “Cell cycle distribution S” value (MDA-MB-231 cells [1]) is reported as 16.40%. For the same compound, the “Effect on interphase microtubule network” value (HeLa cells [2]) was “dramatic reduction of the interphase microtubule network”, the “Effect on interphase microtubule network” value (MDA-MB-231 cells [3]) was “dramatic reduction of the interphase microtubule network” and the IC50 (MDA-MB-231; Homo sapiens, MDA-MB-231, 72 h) was 3.1 nM. For the same compound, the IC50 (HeLa; Homo sapiens, 72 h) was 3.8 nM, the IC50 (A549; Homo sapiens, A549, 72 h) was 89 nM and the “Cell cycle distribution G0/G1” value (HeLa cells [4]) was 10.30%. The “Cell cycle distribution G2/M” value (HeLa cells [4]) was 73.4%, the “Cell cycle distribution S” value (HeLa cells [4]) was 15.40% and the “Inhibition of tubulin polymerization” value (bovine brain tubulin; compound at 1 μM, 1 µM) was “failed to inhibit tubulin polymerization; also recorded: slightly stimulating tubulin polymerization”. The “Inhibition of tubulin polymerization” value (bovine brain tubulin; compound at 10 μM) was “remained ineffective against tubulin polymerization”.

For `COc1ccc(-c2cccc(-c3ccc(OC)c(O)c3)n2)c(OC)c1` [Compound 4s, 5-(6-(2,4-Dimethoxyphenyl)pyridine-2-yl)-2-methoxyphenol], the “Cell cycle distribution G0/G1” value (MDA-MB-231 cells [1]) was 18.60%, the “Cell cycle distribution G2/M” value (MDA-MB-231 cells [1]) was 54.1% and the “Cell cycle distribution S” value (MDA-MB-231 cells [1]) was 17.10%. It also gave a melting point of 142 to 144 °C, an IC50 (MDA-MB-231; Homo sapiens, MDA-MB-231, 72 h) of 4.6 nM and an IC50 (HeLa; Homo sapiens, 72 h) of 1.4 nM. The IC50 (A549; Homo sapiens, A549, 72 h) was 44 nM, the “Cell cycle distribution G0/G1” value (HeLa cells [4]) was 12.10% and the “Cell cycle distribution G2/M” value (HeLa cells [4]) was 70.6%. For the same compound, the “Cell cycle distribution S” value (HeLa cells [4]) was 17.10%, the “Inhibition of tubulin polymerization” value (bovine brain tubulin; compound at 1 μM) was “failed to inhibit tubulin polymerization” and the “Inhibition of tubulin polymerization” value (bovine brain tubulin; compound at 10 μM) was 57%. For the same compound, the “Anti-angiogenesis activity compared with CA-4” value ([5]; CAM, 4 days after treatment) was “more effective than CA-4 in suppressing new vessel growth”, the “Effect on new vessel growth” value ([5]; CAM, 4 days after treatment) was “inhibition of new vessel growth and vessel shrinkage” and the “Angiogenesis score (scale 0-3) versus positive control BV (bFGF+VEGF)” value [5] was “scored significantly lower than the positive control”.

In the case of `COc1ccc(/C=C\c2cc(OC)c(OC)c(OC)c2)cc1O` [CA-4, Combretastatin A4, reference compound], the “Cell cycle distribution G0/G1” value (MDA-MB-231 cells [1]) is reported as 27.50%, the “Cell cycle distribution G2/M” value (MDA-MB-231 cells [1]) is reported as 57.80% and the “Cell cycle distribution S” value (MDA-MB-231 cells [1]) is reported as 11.80%. For the same compound, the “Effect on interphase microtubule network” value (HeLa cells [2]) was “very similar loss of the microtubule network”, the “Effect on interphase microtubule network” value (MDA-MB-231 cells [3]) was “very similar loss of the microtubule network” and the IC50 (MDA-MB-231) was 2.8 nM. For the same compound, the IC50 (HeLa) was 0.9 nM, the IC50 (A549) was 3.8 nM and the “Cell cycle distribution G0/G1” value (HeLa cells [4]) was 37.00%. The “Cell cycle distribution G2/M” value (HeLa cells [4]) was 44.6%, the “Cell cycle distribution S” value (HeLa cells [4]) was 16.70% and the “Inhibition of tubulin polymerization” value (bovine brain tubulin; compound at 1 μM) was 35%. For the same compound, the “Inhibition of tubulin polymerization” value (bovine brain tubulin; compound at 10 μM) was “nearly completely blocked tubulin polymerization”, the “Effect on new vessel growth” value ([5]; CAM, 4 days after treatment) was “inhibition of new vessel growth and vessel shrinkage” and the “Angiogenesis score (scale 0-3) versus positive control BV (bFGF+VEGF)” value [5] was “scored significantly lower than the positive control”.
